Usually pIC50 stands for −log10 of the IC50, conventionally taken in molar units. Low readings indicate a high IC50, high ones a low IC50.

pIC50: −log10 of the molar value. Some results are limits rather than exact numbers.

Sequence of ROCK2 (O75116 whole entry, species assumed): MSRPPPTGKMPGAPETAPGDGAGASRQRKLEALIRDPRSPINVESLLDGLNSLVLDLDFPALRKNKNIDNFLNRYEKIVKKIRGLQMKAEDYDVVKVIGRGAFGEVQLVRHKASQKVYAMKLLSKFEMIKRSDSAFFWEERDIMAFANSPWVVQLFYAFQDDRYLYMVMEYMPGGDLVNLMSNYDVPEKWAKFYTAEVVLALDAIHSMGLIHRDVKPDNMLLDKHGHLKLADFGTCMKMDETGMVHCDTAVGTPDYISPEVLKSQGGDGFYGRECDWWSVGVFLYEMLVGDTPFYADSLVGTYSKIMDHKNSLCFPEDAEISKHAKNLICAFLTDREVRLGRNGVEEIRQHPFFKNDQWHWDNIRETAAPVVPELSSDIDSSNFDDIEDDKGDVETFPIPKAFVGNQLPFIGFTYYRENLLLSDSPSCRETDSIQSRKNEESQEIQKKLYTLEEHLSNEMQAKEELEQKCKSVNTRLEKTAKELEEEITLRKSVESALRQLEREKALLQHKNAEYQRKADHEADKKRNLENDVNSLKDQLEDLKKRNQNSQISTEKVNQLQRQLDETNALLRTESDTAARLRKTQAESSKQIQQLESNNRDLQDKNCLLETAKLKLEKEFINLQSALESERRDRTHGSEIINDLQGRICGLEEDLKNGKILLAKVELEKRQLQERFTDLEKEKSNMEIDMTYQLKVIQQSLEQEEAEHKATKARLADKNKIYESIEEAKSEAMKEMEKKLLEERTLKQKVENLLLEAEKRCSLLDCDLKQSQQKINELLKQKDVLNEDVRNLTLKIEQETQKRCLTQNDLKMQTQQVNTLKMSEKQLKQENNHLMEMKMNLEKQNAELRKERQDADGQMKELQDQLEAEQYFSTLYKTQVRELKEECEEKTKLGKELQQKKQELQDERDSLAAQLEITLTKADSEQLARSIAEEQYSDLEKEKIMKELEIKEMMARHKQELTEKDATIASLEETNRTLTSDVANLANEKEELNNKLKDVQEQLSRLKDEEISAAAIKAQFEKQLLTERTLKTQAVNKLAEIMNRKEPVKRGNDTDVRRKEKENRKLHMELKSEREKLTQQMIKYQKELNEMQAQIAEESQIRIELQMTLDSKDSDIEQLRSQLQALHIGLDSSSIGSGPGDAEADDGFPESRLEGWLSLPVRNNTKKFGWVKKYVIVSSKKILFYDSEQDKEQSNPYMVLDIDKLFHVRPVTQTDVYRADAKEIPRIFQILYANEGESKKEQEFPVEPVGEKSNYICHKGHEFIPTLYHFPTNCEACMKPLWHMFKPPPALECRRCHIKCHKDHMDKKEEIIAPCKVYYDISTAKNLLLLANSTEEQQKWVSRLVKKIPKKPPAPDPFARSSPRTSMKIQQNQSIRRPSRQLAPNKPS

This test concerns the target ROCK2 (Homo sapiens (Human), UniProt O75116). Briefly: ROCK2 assay (peptide phosphorylation, LABCHIP 3000 Reader). The class given is biochemical. As to conditions: 5 μM ATP, 1.5 μM peptide substrate. The procedure: The effectiveness of compounds of the present invention as ROCK inhibitors can be determined in a 30 μL, assay containing 20 mM HEPES, pH 7.5, 20 mM MgCl2, 0.015% Brij-35, 4 mM DTT, 5 μM ATP and 1.5 μM peptide substrate (FITC-AHA-AKRRRLSSLRA-OH). Compounds were dissolved in DMSO so that the final concentration of DMSO was <2%, and the reaction was initiated with Rho kinase variants. After incubation, the reaction was terminated by the addition of EDTA and the phosphorylated and non-phosphorylated peptides separated using a LABCHIP® 3000 Reader (Caliper Life Sciences). […] Compounds were tested in dose-response format, and the inhibition of kinase activity was calculated at each concentration of compound. The inhibition data were fit using a curve-fitting program to determine the IC50; i.e., the concentration of compound required to inhibit 50% of kinase activity.
Representative Examples were tested in the ROCK2 assay described above and found having ROCK2 inhibitory activity.
The compound `COc1cc(-c2cn[nH]c2)ccc1-n1c(C)nn(Cc2cc(F)ccc2F)c1=O` [Example 78, 1-(2,5-difluorobenzyl)-4-(2-methoxy-4-(1H-pyrazol-4-yl)phenyl)-3-methyl-1H-1,2,4-triazol-5(4H)-one] had a negative logarithm of the IC50 (pIC50) of 6.60 to 7.30.

`COc1cc(-n2cnn(C(C)c3ccccc3)c2=O)ccc1-c1cn[nH]c1` (centres unmarked) [Example 8, 4-(3-methoxy-4-(1H-pyrazol-4-yl)phenyl)-1-(1-phenylethyl)-1H-1,2,4-triazol-5(4H)-one] showed a pIC50 of 5.70 to 6.60. Turning to `CC(O)c1nn(-c2ccc(-c3cn[nH]c3)cc2)c(=O)n1Cc1ccccc1` (single isomer, unassigned) [Example 141, 1-(4-(1H-pyrazol-4-yl)phenyl)-4-benzyl-3-(1-hydroxyethyl)-1H-1,2,4-triazol-5(4H)-one], the pIC50 is 7.30 to 8.30. For `COc1cccc(Cn2c(CN3CCOCC3)nn(-c3ccc(-c4cn[nH]c4)cc3)c2=O)c1` [Example 143, 1-(4-(1H-pyrazol-4-yl)phenyl)-4-(3-methoxybenzyl)-3-(morpholinomethyl)-1H-1,2,4-triazol-5(4H)-one] the value was 7.30 to 8.30; for `COc1cc(-n2nc(C)n(Cc3cc(F)ccc3F)c2=O)ccc1-c1cn[nH]c1` [Example 91, 4-(2,5-difluorobenzyl)-1-(3-methoxy-4-(1H-pyrazol-4-yl)phenyl)-3-methyl-1H-1,2,4-triazol-5(4H)-one], 7.30 to 8.30. For `COc1cc(-c2cn[nH]c2)ccc1-n1cnn(Cc2cc(F)ccc2F)c1=O` [Example 13, 1-(2,5-difluorobenzyl)-4-(2-methoxy-4-(1H-pyrazol-4-yl)phenyl)-1H-1,2,4-triazol-5(4H)-one] the value was 5.70 to 6.60; for `CC(C)(O)c1nn(-c2ccc(-c3cn[nH]c3)cc2)c(=O)n1Cc1cc(F)ccc1F` [Example 136, 1-(4-(1H-pyrazol-4-yl)phenyl)-4-(2,5-difluorobenzyl)-3-(2-hydroxypropan-2-yl)-1H-1,2,4-triazol-5(4H)-one], 6.60 to 7.30. For `COc1ccc(Cn2cnn(-c3ccc(-c4cn[nH]c4)cc3)c2=O)cc1F` [Example 53, 1-(4-(1H-pyrazol-4-yl)phenyl)-4-(3-fluoro-4-methoxybenzyl)-1H-1,2,4-triazol-5(4H)-one] the value was 5.70 to 6.60. On to `COc1cc(-n2ncn(Cc3ccccc3Cl)c2=O)ccc1-c1cn[nH]c1` [Example 32, 4-(2-chlorobenzyl)-1-(3-methoxy-4-(1H-pyrazol-4-yl)phenyl)-1H-1,2,4-triazol-5(4H)-one], for which the pIC50 is 7.30 to 8.30. For `O=c1n(Cc2ccccc2Cl)nnn1-c1ccc(-c2cn[nH]c2)cc1` [Example 177, 1-(4-(1H-pyrazol-4-yl)phenyl)-4-(2-chlorobenzyl)-1H-tetrazol-5(4H)-one] the value was 6.60 to 7.30; for `COc1cc(-c2cn[nH]c2)ccc1-n1c(C)nn(Cc2ccccc2)c1=O` [Example 63, 1-benzyl-4-(2-methoxy-4-(1H-pyrazol-4-yl)phenyl)-3-methyl-1H-1,2,4-triazol-5(4H)-one], 5.70 to 6.60; for `COc1cccc(Cn2c(C)nn(-c3ccc(-c4ccnc5[nH]ccc45)cc3)c2=O)c1` [Example 165, 1-(4-(1H-pyrrolo[2,3-b]pyridin-4-yl)phenyl)-4-(3-methoxybenzyl)-3-methyl-1H-1,2,4-triazol-5(4H)-one], 7.30 to 8.30.

In turn, `COc1cc(-n2ncn(Cc3cccc(OC(F)F)c3)c2=O)ccc1-c1cn[nH]c1` [Example 37, 4-(3-(difluoromethoxy)benzyl)-1-(3-methoxy-4-(1H-pyrazol-4-yl)phenyl)-1H-1,2,4-triazol-5(4H)-one] showed a pIC50 of 7.30 to 8.30. For `COc1cccc(Cn2c(CN3CCC(O)C3)nn(-c3ccc(-c4cn[nH]c4)cc3)c2=O)c1` (centres unmarked) [Example 156, 1-(4-(1H-pyrazol-4-yl)phenyl)-3-((3-hydroxypyrrolidin-1-yl)methyl)-4-(3-methoxybenzyl)-1H-1,2,4-triazol-5(4H)-one] the value was 7.30 to 8.30.

On to `O=c1n(Cc2ccccc2)nnn1-c1ccc(-c2cn[nH]c2)cc1` [Example 178, 1-(4-(1H-pyrazol-4-yl)phenyl)-4-benzyl-1H-tetrazol-5(4H)-one], for which the pIC50 was 7.30 to 8.30. In the case of `COc1cccc(C(C)n2c(C)nn(-c3ccc(-c4cn[nH]c4)cc3)c2=O)c1` (single isomer, unassigned) [Example 118, 1-(4-(1H-pyrazol-4-yl)phenyl)-4-(1-(3-methoxyphenyl)ethyl)-3-methyl-1H-1,2,4-triazol-5(4H)-one] it was 7.30 to 8.30; in that of `COc1cc(F)cc(Cn2nnn(-c3ccc(-c4cn[nH]c4)cc3)c2=O)c1` [Example 175, 1-(4-(1H-pyrazol-4-yl)phenyl)-4-(3-fluoro-5-methoxybenzyl)-1H-tetrazol-5(4H)-one], 7.30 to 8.30; in that of `CCc1cc(-n2nc(C)n(Cc3cc(F)ccc3F)c2=O)ccc1-c1cn[nH]c1` [Example 107, 4-(2,5-difluorobenzyl)-1-(3-ethyl-4-(1H-pyrazol-4-yl)phenyl)-3-methyl-1H-1,2,4-triazol-5(4H)-one], 6.60 to 7.30.

Turning to `COc1cc(F)cc(Cn2c(CN3CCNCC3)nn(-c3ccc(-c4cn[nH]c4)cc3)c2=O)c1` [Example 152, 1-(4-(1H-pyrazol-4-yl)phenyl)-4-(3-fluoro-5-methoxybenzyl)-3-(piperazin-1-ylmethyl)-1H-1,2,4-triazol-5(4H)-one], the pIC50 is 7.30 to 8.30. For `COc1cc(-n2ncn(Cc3cccc(C#N)c3)c2=O)ccc1-c1cn[nH]c1` [Example 35, 3-((1-(3-methoxy-4-(1H-pyrazol-4-yl)phenyl)-5-oxo-1H-1,2,4-triazol-4(5H)-yl)methyl)benzonitrile] the value was 6.60 to 7.30; for `CCc1cc(-n2nc(C)n(Cc3cccc(OC(F)F)c3)c2=O)ccc1-c1cn[nH]c1` [Example 112, 4-(3-(difluoromethoxy)benzyl)-1-(3-ethyl-4-(1H-pyrazol-4-yl)phenyl)-3-methyl-1H-1,2,4-triazol-5(4H)-one], 6.60 to 7.30. `COc1cccc(Cn2nnn(-c3ccc(-c4cn[nH]c4)c(OC)c3)c2=O)c1` [Example 187, 1-(3-methoxy-4-(1H-pyrazol-4-yl)phenyl)-4-(3-methoxybenzyl)-1H-tetrazol-5(4H)-one] showed a pIC50 of 7.30 to 8.30. Turning to `COc1cc(F)cc(Cn2c(CNC(C)CO)nn(-c3ccc(-c4cn[nH]c4)cc3)c2=O)c1` (centres unmarked) [Example 153, 1-(4-(1H-pyrazol-4-yl)phenyl)-4-(3-fluoro-5-methoxybenzyl)-3-(((1-hydroxypropan-2-yl)amino)methyl)-1H-1,2,4-triazol-5(4H)-one], the pIC50 was 7.30 to 8.30.

As to `COc1cc(-n2nnn(Cc3ccc(F)cc3)c2=O)ccc1-c1cn[nH]c1` [Example 186, 1-(4-fluorobenzyl)-4-(3-methoxy-4-(1H-pyrazol-4-yl)phenyl)-1H-tetrazol-5(4H)-one], the negative-log IC50 (pIC50) is 5.70 to 6.60. For `COc1cc(-n2ncn(Cc3cccc(F)c3)c2=O)ccc1-c1cn[nH]c1` [Example 30, 4-(3-fluorobenzyl)-1-(3-methoxy-4-(1H-pyrazol-4-yl)phenyl)-1H-1,2,4-triazol-5(4H)-one] the value was more than 8.30; for `O=c1n(-c2ccc(-c3cn[nH]c3)cc2)cnn1Cc1ccccc1` [Example 2, 4-(4-(1H-pyrazol-4-yl)phenyl)-1-benzyl-1H-1,2,4-triazol-5(4H)-one], 6.60 to 7.30.

The values above are taken from US10562887B2, “Triazolones and tetrazolones as inhibitors of ROCK” (BRISTOL-MYERS SQUIBB COMPANY, priority 2016, dated 2020).
